Positions count from the first letter of the chain named. Where two headings read alike, the source gives them in different places.
Experiments:
MDA-9 PDZ2 domain [1] = biological target: T1, MDA-9 PDZ2 domain (Homo sapiens, UniProt O00560); experiment: NMR chemical shift perturbation titration (1H-15N HSQC); type: binding
T1 construct: PDZ1 (110–193aa), PDZ2 (194–274aa), and the C-terminal (275–298aa); made in house
T1 sequence (O00560 194-274): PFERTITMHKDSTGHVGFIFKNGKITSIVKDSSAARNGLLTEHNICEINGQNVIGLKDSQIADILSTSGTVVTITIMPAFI
Experimental: (§1) NMR fragment-based screening was performed at 25 °C using an Agilent 700 MHZ spectrometer equipped with a 96-well autosampler (Agilent Technologies, Santa Clara, CA, USA). ^1H-^15N HSQC spectra were acquired from the ^15N-labeled MDA-9 PDZ1 and PDZ2 domains (0.05 mM). A fragment library of 890 compounds (Chembridge, SanDiego, CA, USA) and an approved drug library of 540 compounds (TargetMol, Boston, MA, USA) were pooled into cocktails, respectively, and each cocktail contained 10 compounds at 0.2 mM [39, 40]. The ^1H-^15N HSQC spectra were measured on an Agilent 700 MHz spectrometer at ligand/protein molar ratios ranging from 0.0 to 4.0.
(§2) The ^15N-labelled PDZ1 and PDZ2 domains of MDA-9 were concentrated in the HEPES buffer (20 mM HEPES, 100 mM NaCl, 1 mM EDTA, 1 mM DTT, pH 7.0) to 0.05 mmol/L. The screening fragment compounds were then titrated to these ^15N-labeled MDA-9 PDZ1 or PDZ2 domain, respectively. Each HSQC profile was collected (at molar ratios of 0.0, 2.0, 4.0, 8.0, 16.0, and 32.0 at 25 °C) using an Agilent 700 MHz spectrometer. NMR spectra were analyzed using Sparky. The chemical shift changes (Δδ), relative to the free form of the PDZ1 or PDZ2 domain, were calculated as follows:(1) Δδ=(∆δH^1)^2+(0.2ΔδN^15)^2 where ∆δH^1 and ΔδN^15 denote the chemical shift changes of ^1H and ^15N, respectively. […]

MDA-MB-231 cells [2] = experiment: Wound-healing assay; type: cell-based; conditions: 100 μM each compound, 0 and 24 h, relative to DMSO
Experimental: MDA-MB-231 cells were spread in 6-well plate culture dishes, where sh-MDA-9 cells were used as a positive control. DMSO (control), PI1A 100 μM, PI2A 100 μM, and both PI1A and PI2A 100 μM were added to the MDA-MB-231 cells, respectively. On newly grown monolayer cells, […] of the tip was used to line the central area of cell growth. Next, excess cells were washed away with PBS buffer. The cells were then cultured for the experimentally-determined period of time (0 h or 24 h). Lastly, the cell culture plates were removed separately and the peripheral cells were observed under a microscope to determine whether they had migrated to the scratched area.

MDA-MB-231 cells [3] = experiment: CCK8 cell viability assay; type: cell-based; conditions: 48 h treatment
Experimental: The MDA-MB-231 cells were obtained by a gift. CCK8 assay was used to assess the effects of PI1A or PI2A on the viability of MDA-MB-231 cells. Cells were placed in 96-well plates and treated with different concentrations of DMSO, PI1A, or PI2A for 48 h. Then, 10 μL of CCK8 solution was added to the wells. The 96-well plates were incubated in a CO2 incubator at 37 °C for another 1 h. OD values were measured at 450 nm using a CLARIOstar (BMG LABTECH) plate reader.

MDA-9 PDZ2 domain [4] = biological target: T1, MDA-9 PDZ2 domain; experiment: Competitive fluorescence polarization with FITC-peptide; conditions: 250 μM PDZ2, 500 nM FITC-peptide; read-out: Binding affinity to PDZ2 from competitive FP
Experimental: (§3) For competitive FP experiments with the FITC-peptide, the PDZ1 domain concentration was set at 80 μM and the PDZ2 domain concentration at 250 μM. After that, each aliquot of the 200 μL sample contained 500 nM of the FITC-peptide, 80 μM of the PDZ1 or 250 μM of the PDZ2 domain, as well as different concentrations of PI1A or PI2A. A concentration range of 0–200 μM was administered for PI1A while a concentration range of 0–600 μM was administered for PI2A. Samples were repeated 3 times for each experimental group. The dissociation constants for the interactions between ligands and proteins were derived from the complete competitive FP equation proposed by Gerhard Wagner et al. (Biochemistry 2004). […]

[5] = biological target: T2, V209I mutant of MDA-9 PDZ2 domain (Homo sapiens, UniProt O00560, V209I); experiment: NMR CSP titration against mutant; type: binding
T2 construct: PDZ1 (110–193aa), PDZ2 (194–274aa), and the C-terminal (275–298aa); made in house
T2 sequence (O00560 194-274 V209I): T1 sequence (O00560 194-274) with V16I
Experimental: (§4) The ^15N-labelled PDZ1 and PDZ2 domains of MDA-9 were concentrated in the HEPES buffer (20 mM HEPES, 100 mM NaCl, 1 mM EDTA, 1 mM DTT, pH 7.0) to 0.05 mmol/L. The screening fragment compounds were then titrated to these ^15N-labeled MDA-9 PDZ1 or PDZ2 domain, respectively. Each HSQC profile was collected (at molar ratios of 0.0, 2.0, 4.0, 8.0, 16.0, and 32.0 at 25 °C) using an Agilent 700 MHz spectrometer. NMR spectra were analyzed using Sparky. The chemical shift changes (Δδ), relative to the free form of the PDZ1 or PDZ2 domain, were calculated as follows:(1) Δδ=(∆δH^1)^2+(0.2ΔδN^15)^2 where ∆δH^1 and ΔδN^15 denote the chemical shift changes of ^1H and ^15N, respectively.
(§5) According to this equation, the binding constants can be best fitted with a binding mode of 1:1: Δδobs=Δδmax([P]t+[L]t+Kd)−([P]t+[L]t+Kd)^2−4[P]t[L]t/2[P]t where [P]t and [L]t represent the concentrations of the protein and ligand, respectively. Δδobs represents the observed chemical shift changes, relative to the free-state protein.

[6] = biological target: T3, G210A mutant of MDA-9 PDZ2 domain (Homo sapiens, UniProt O00560, G210A); experiment: NMR CSP titration against mutant; type: binding; conditions: relative to wild type
T3 construct: PDZ1 (110–193aa), PDZ2 (194–274aa), and the C-terminal (275–298aa); made in house
T3 sequence (O00560 194-274 G210A): T1 sequence (O00560 194-274) with G17A
Experimental: as §4, §5

[7] = biological target: T4, A255V mutant of MDA-9 PDZ2 domain (Homo sapiens, UniProt O00560, A255V); experiment: NMR CSP titration against mutant; type: binding
T4 construct: PDZ1 (110–193aa), PDZ2 (194–274aa), and the C-terminal (275–298aa); made in house
T4 sequence (O00560 194-274 A255V): T1 sequence (O00560 194-274) with A62V
Experimental: as §4, §5

[8] = biological target: T5, H208A mutant of MDA-9 PDZ2 domain (Homo sapiens, UniProt O00560, H208A); experiment: NMR CSP titration against mutant; type: binding
T5 construct: PDZ1 (110–193aa), PDZ2 (194–274aa), and the C-terminal (275–298aa); made in house
T5 sequence (O00560 194-274 H208A): T1 sequence (O00560 194-274) with H15A
Experimental: as §4, §5

[9] = biological target: T6, V209A mutant of MDA-9 PDZ2 domain (Homo sapiens, UniProt O00560, V209A); experiment: NMR CSP titration against mutant; type: binding; conditions: relative to wild type
T6 construct: PDZ1 (110–193aa), PDZ2 (194–274aa), and the C-terminal (275–298aa); made in house
T6 sequence (O00560 194-274 V209A): T1 sequence (O00560 194-274) with V16A
Experimental: as §4, §5

[10] = biological target: T7, MTSL-labeled C239S/D256C mutant of MDA-9 PDZ2 domain (Homo sapiens, UniProt O00560, C239S/D256C); experiment: NMR CSP titration against MTSL-labeled mutant; type: binding; conditions: dose-dependent CSP
T7 construct: PDZ1 (110–193aa), PDZ2 (194–274aa), and the C-terminal (275–298aa); made in house
T7 sequence (O00560 194-274 C239S/D256C): T1 sequence (O00560 194-274) with C46S, D63C
Experimental: as §4, §5
(§6) The ^15N-labeled PDZ1 C118/C166S mutant and the PDZ2 C239S/D256C mutant were expressed by the method described above. After the dilution of the protein solution to 0.5 mg/mL with a 1-fold excess of Tris(2-carboxyethyl) phosphine (TCEP), the solution was incubated for 2 h at room temperature. […] WATERGATE spectra with T2 delays of 0.04 and 0.8 s were recorded. […]

MDA-9 PDZ1 domain [11] = biological target: T8, MDA-9 PDZ1 domain (Homo sapiens, UniProt O00560); experiment: NMR chemical shift perturbation titration (1H-15N HSQC); conditions: 25 °C, pH 7.0, read-out: Binding affinity (Kd) to MDA-9 PDZ1 domain from dose-dependent CSPs
T8 construct: the N-terminal (1–109aa), PDZ1 (110–193aa), PDZ2 (194–274aa); made in house
T8 sequence (O00560 110-193): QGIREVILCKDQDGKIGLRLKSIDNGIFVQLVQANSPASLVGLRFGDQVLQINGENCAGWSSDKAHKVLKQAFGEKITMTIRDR
Experimental: as §1, §2

[12] = biological target: T9, MTSL-labeled C118/C166S mutant of MDA-9 PDZ1 domain (Homo sapiens, UniProt O00560, C166S); experiment: NMR CSP titration against MTSL-labeled mutant; conditions: dose-dependent CSP, read-out: Binding affinity to MTSL-labeled C118/C166S mutant of PDZ1
T9 construct: the N-terminal (1–109aa), PDZ1 (110–193aa), PDZ2 (194–274aa); made in house
T9 sequence (O00560 110-193 C166S): T8 sequence (O00560 110-193) with C57S
Experimental: as §4, §5, §6

MDA-9 PDZ1 domain [13] = biological target: T8, MDA-9 PDZ1 domain; experiment: Competitive fluorescence polarization with FITC-peptide; conditions: 80 μM PDZ1, 500 nM FITC-peptide; read-out: Binding affinity to PDZ1 from competitive FP
Experimental: as §3

glioma cells = system: glioma cells; design: method as in PMID 28011764; conditions: cited from earlier work
MDA-9 PDZ1 domain [14] = biological target: T8, MDA-9 PDZ1 domain; design: method as in PMID 28011764; conditions: read-out: Affinity for MDA-9 PDZ1 domain; cited from earlier work
brain-tumor-bearing mice = system: brain-tumor-bearing mice; design: method as in PMID 28011764; conditions: cited from earlier work
[15] = system: prostate cancer or neuroblastoma; design: method as in PMID 31406249, PMID 31345950; conditions: cited from earlier work
MDA-9 PDZ2 domain [16] = biological target: T1, MDA-9 PDZ2 domain; conditions: cited from earlier work

SMILES | Kd (MDA-9 PDZ2 domain [1]; 25 °C, pH 7.0, read-out: Binding affinity (Kd) to MDA-9 PDZ2 domain by NMR titration) [µM] | Migration of MDA-MB-231 cells (wound closure) (MDA-MB-231 cells [2]) | Toxicity / viability of MDA-MB-231 cells (CCK8) (MDA-MB-231 cells [3]) | Kd (MDA-9 PDZ2 domain [4]) [µM] | Kd [5] [mM] | Binding affinity to G210A mutant of PDZ2 (in words) [6] | Kd [7] [mM] | Binding to H208A mutant of PDZ2 (in words) [8] | Binding affinity to V209A mutant of PDZ2 (in words) [9] | Effect of MTSL labeling of C239S/D256C PDZ2 mutant on inhibitor binding affinity (in words) [10] | Kd (MDA-9 PDZ1 domain [11]) [µM] | Binding to MDA-9 PDZ2 domain (in words) (MDA-9 PDZ2 domain [1]) | Kd [12] [µM] | Kd (MDA-9 PDZ1 domain [13]) [µM] | Invasion of glioma cells (glioma cells) | Kd (MDA-9 PDZ1 domain [14]) [µM] | Survival rate in brain-tumor-bearing mice (brain-tumor-bearing mice) | In vivo activity against prostate cancer or neuroblastoma [15] | Binding to MDA-9 PDZ2 domain (in words) (MDA-9 PDZ2 domain [16])
O=C(O)c1cc(-c2ccc(F)cc2)n[nH]1 [PI2A] | 500 | suppressed the migration | not toxic | 510 | > 5 | reduced binding affinities | > 5 | incapable of binding | reduced binding affinities | did not disrupt | > 1000 | – | – | – | – | – | – | – | –
Cc1cc(Nc2ccccc2C(=O)O)ccc1Cl [PI1A] | – | suppressed the migration | not toxic | – | – | – | – | – | – | – | 110 | did not bind | 250 | 170 | – | – | – | – | –
Cc1cc(NC(=O)c2nc3nc4c(c(=O)n3[nH]2)CCC4)c(C)cc1NC(=O)CCc1nnc(-c2ccccc2)o1 [PDZ1i] | – | – | – | – | – | – | – | – | – | – | – | – | – | – | inhibited the invasion | 21 | improved survival rate | exhibited in vivo activity | did not bind significantly
